Data published in paper PMC13288134 (Structure (London, England : 1993), 2025).

Assays:
[1] = target: TvVip2 (Trichoderma virens, UniProt G9N0G3, F40H); test: X-ray crystal structure, […] Å; assay type: binding; conditions: active site, anaerobic
[2] = target: T1, TvVip2 (Trichoderma virens, UniProt G9N0G3); test: X-ray crystal structure, […] Å; assay type: binding; conditions: active site, anaerobic
T1 sequence (G9N0G3 32-328): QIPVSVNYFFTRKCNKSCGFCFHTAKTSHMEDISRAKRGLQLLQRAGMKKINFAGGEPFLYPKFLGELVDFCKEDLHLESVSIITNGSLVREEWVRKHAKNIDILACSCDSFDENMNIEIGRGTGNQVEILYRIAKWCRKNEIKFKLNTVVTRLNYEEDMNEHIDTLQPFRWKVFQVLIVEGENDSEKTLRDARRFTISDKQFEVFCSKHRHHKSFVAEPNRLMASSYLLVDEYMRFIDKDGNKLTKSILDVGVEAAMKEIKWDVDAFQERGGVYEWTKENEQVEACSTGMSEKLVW

[3] = target: T2, TvVip1 (Trichoderma virens, UniProt G9MQB8); test: competition: loss of deu-5'-dA formation from […] deuterated NTP, LC-MS; assay type: biochemical
[4] = target: T3, TvVip1 CTP-swap V2 (Trichoderma virens, UniProt Z9USF9BXN2); test: competition: deu-5'-dA formation by LC-MS, Cheng-Prusoff from IC50 and Km; assay type: biochemical; conditions: calculated from average IC50 and Km; competitive assumption; 1 mM deuCTP, 1 mM SAM, 10 μM enzyme, dithionite, HEPES pH 7.5
T3 sequence (Z9USF9BXN2 24-317): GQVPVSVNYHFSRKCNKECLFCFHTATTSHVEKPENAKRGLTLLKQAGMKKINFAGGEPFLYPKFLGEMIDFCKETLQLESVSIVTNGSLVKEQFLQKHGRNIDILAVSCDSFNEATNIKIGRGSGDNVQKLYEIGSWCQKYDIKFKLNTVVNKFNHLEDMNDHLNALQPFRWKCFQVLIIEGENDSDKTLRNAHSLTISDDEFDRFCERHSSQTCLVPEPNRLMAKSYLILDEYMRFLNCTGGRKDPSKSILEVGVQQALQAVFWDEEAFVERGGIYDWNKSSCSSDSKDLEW

[5] = target: T2, TvVip1; test: as above; assay type: biochemical; conditions: calculated from average IC50 and Km; competitive assumption; 1 mM deuUTP, 1 mM SAM, 10 μM enzyme, dithionite, HEPES pH 7.5
[6] = target: T3, TvVip1 CTP-swap V2; test: as above; assay type: biochemical; conditions: calculated from average IC50 and Km; competitive assumption; 1 mM deuUTP, 1 mM SAM, 10 μM enzyme, dithionite, HEPES pH 7.5

Row | Compound | X-ray crystal structure, 2.3 Å ([1]; with CTP and [4Fe-4S]) | X-ray crystal structure, 1.5 Å ([2]; with CTP and [4Fe-4S]) | IC50 [3] [µM] | Ki (UTP) [4] [µM] | X-ray crystal structure, 2.3 Å ([1]; with SAM and [4Fe-4S]) | Ki (CTP) [5] [µM] | X-ray crystal structure, 1.5 Å ([2]; with SAM and [4Fe-4S]) | Ki (CTP) [6] [µM]
1 | C[S+](CC[C@H](N)C(=O)O)C[C@H]1O[C@@H](n2cnc3c(N)ncnc32)[C@H](O)[C@@H]1O (stereo partly drawn) [SAM] | TvVip2 F40H (PDB: 9DFU) in the presence of CTP and SAM | contain strong electron density representing the radical SAM [4Fe-4S] cluster, SAM, and CTP | – | – | – | – | – | –
2 | O=c1ccn([C@@H]2O[C@H](COP(=O)(O)OP(=O)(O)OP(=O)(O)O)[C@@H](O)[C@H]2O)c(=O)[nH]1 [UTP] | – | – | 19 ± 5.7 | > 59 | – | – | – | –
3 | Nc1ccn([C@@H]2O[C@H](COP(=O)(O)OP(=O)(O)OP(=O)(O)O)[C@@H](O)[C@H]2O)c(=O)n1 [CTP] | – | – | > 4900 | – | TvVip2 F40H (PDB: 9DFU) in the presence of CTP and SAM | > 360 | contain strong electron density representing the radical SAM [4Fe-4S] cluster, SAM, and CTP | 0.22
